Converted amounts (≈) assume the structure as drawn.

One assay deals with HEp-2. Briefly: Cytotoxicity against human Hep2 cells after 48 hrs. Conditions: HEp-2, 48 h.
Another assay relates to Caco-2. Briefly: Cytotoxicity against human Caco-2 cells after 48 hrs. As to conditions: Caco-2, 48 h.

Take `Cc1ccc(NC(=O)c2c(-c3ccccc3)c(-c3ccccc3)nn2-c2ccccc2)cc1`: the IC50 in the assay on HEp-2 came out at 1.21 mg/L (≈ 2.82 µM); with Caco-2, 2.21 mg/L (≈ 5.15 µM).

For `Cc1ccc(NC(=O)c2c(-c3ccc(Cl)cc3)c(-c3ccccc3)nn2-c2ccccc2)cc1`, the IC50 with HEp-2 is 0.81 mg/L (≈ 1.75 µM); with Caco-2 it was 1.54 mg/L (≈ 3.32 µM).

Consider `O=C(c1c(-c2ccc(Cl)cc2)c(-c2ccccc2)nn1-c1ccccc1)n1c(=S)[nH]c2ccccc21`, for which the IC50 was 1.54 mg/L (≈ 3.04 µM) in the assay with HEp-2 and 3.29 mg/L (≈ 6.49 µM) with Caco-2.

For the compound `O=C(Nc1ccccc1)c1c(-c2ccccc2)c(-c2ccccc2)nn1-c1ccccc1`, the values for the IC50 in the assay on HEp-2 and with Caco-2 were 1.5 mg/L (≈ 3.61 µM) and 1.68 mg/L (≈ 4.04 µM), respectively.

Turning to `O=C(c1c(-c2ccccc2)c(-c2ccccc2)nn1-c1ccccc1)n1c(=S)[nH]c2ccccc21`, the IC50 came out at 7.18 mg/L (≈ 15.2 µM) with HEp-2 and 1.48 mg/L (≈ 3.13 µM) with Caco-2.

In the case of `O=C(Nc1ccccc1)c1c(-c2ccc(Cl)cc2)c(-c2ccccc2)nn1-c1ccccc1`, the half-maximal inhibitory concentration (IC50) is 0.74 mg/L (≈ 1.64 µM) in the assay with HEp-2 and 1.74 mg/L (≈ 3.87 µM) in the assay with Caco-2.

As to `Cc1ccc(NC(=O)c2c(-c3ccccc3)c(-c3ccc(Cl)cc3)nn2-c2ccccc2)cc1`, the IC50 in the assay on HEp-2 was found to be 1.21 mg/L (≈ 2.61 µM); with Caco-2 it was 0.67 mg/L (≈ 1.44 µM).

On to `COc1cccc2c1C(=O)c1c(O)c3c(c(O)c1C2=O)C[C@@](O)(C(=O)CO)C[C@@H]3O[C@H]1C[C@H](N)[C@H](O)[C@H](C)O1` [DOXORUBICIN], for which the figures for the concentration for half-maximal inhibition (IC50) in the assay with HEp-2 and in the assay with Caco-2 were 0.4 mg/L (≈ 0.736 µM) and 1 mg/L (≈ 1.84 µM), respectively.

The IC50 is the concentration that gives 50% inhibition.

The values above are taken from ChEMBL document CHEMBL1165884, “Microwave-assisted synthesis and in-vitro anti-tumor activity of 1,3,4-triaryl-5-N-arylpyrazole-carboxamides” (Eur J Med Chem, 2010).
